The source of these data is patent US5595995A, “Pyridyl-propan-2-yl esters of 1-adamantane carboxylates” (priority 1992, dated 1997).

The subject of series [1] is a species of yeast. The note with it: Korytnyk and Fricke, J. Med. Chem. 11, 180-181 (1968); cited from earlier work.
For series [2], the system named is acute toxicity in mice of 4-vinylpyridine. Particulars: J. Med. Chem. 16, 865-867 (1973); cited from earlier work.
In series [3] the target is T1, aromatase (Homo sapiens, UniProt P11511).
T1 sequence (P11511 1-503): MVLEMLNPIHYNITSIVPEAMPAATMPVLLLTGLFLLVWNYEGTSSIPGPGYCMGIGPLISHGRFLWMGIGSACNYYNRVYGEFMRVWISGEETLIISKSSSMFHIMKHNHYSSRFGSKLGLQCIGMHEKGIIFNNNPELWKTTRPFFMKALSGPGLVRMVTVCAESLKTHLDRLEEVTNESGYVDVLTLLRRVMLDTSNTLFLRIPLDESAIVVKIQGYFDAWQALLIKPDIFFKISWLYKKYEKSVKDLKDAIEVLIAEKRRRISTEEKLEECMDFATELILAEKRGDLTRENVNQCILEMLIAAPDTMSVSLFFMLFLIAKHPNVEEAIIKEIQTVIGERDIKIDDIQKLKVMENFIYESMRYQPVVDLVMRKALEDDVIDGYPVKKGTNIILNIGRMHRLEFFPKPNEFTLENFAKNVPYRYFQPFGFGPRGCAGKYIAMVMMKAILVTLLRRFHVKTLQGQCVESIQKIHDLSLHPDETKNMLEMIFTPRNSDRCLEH
In words: biochemical.

Series [4] deals with T2, hydroxylase (Homo sapiens, UniProt P05093).
T2 sequence (P05093 1-508): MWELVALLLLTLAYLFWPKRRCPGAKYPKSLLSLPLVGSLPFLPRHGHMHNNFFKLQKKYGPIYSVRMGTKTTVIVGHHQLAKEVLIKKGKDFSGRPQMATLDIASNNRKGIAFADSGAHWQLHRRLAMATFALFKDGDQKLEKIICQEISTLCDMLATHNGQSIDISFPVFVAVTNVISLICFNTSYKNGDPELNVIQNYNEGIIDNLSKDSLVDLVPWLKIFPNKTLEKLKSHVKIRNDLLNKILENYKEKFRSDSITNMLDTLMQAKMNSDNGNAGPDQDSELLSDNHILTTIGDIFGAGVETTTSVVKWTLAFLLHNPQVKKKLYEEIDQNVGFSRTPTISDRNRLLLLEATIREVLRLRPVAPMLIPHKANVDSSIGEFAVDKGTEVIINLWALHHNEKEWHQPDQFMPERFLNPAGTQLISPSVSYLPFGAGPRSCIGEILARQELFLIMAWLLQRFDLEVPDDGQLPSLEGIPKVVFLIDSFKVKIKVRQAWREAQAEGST
In words: biochemical.
Description: (§1) In the hydroxylase assay, the "Nucleosil" pre-column for separation of steroids was also "C18". In the lyase assay, the reaction was stopped after 1/2 hour. […] The enzyme activity was measured from 3 (not 4) concentrations of compound.

Series [5] addresses T3, lyase (Homo sapiens, UniProt P05093).
T3 sequence (P05093 1-508): T2 sequence (P05093 1-508)
Description: biochemical.
Description: as §1

Series [6] addresses T4, 17α-hydroxylase/C17-20 lyase enzyme complex (Homo sapiens, UniProt P05093).
T4 construct: for hydroxylase determinations, the microsomal preparation, prepared according to S. E. Bartie et al; from tissue
T4 sequence (P05093 1-508): T2 sequence (P05093 1-508)
In words: hydroxylase/lyase inhibition, general statements on potency. The note with it: of the order of; greater than the less good compounds of formula (3). The series is classed as biochemical.
Description: as §1

Series [7] is described as follows: resistance of the esters to hydrolytic cleavage (method of R. McCague et al., 1990). The note with it: compared with the other esters of Examples 1-8.

pIC50: −log10 of the molar value.

The pIC50 is −log10 of the IC50, conventionally taken in molar units.

For the compound `Cc1c(COC(=O)C23CC4CC(CC(C4)C2)C3)cc(CO)nc1O`, in series [1], the “growth inhibition of yeast” value is on record as “weak growth inhibitors of a species of yeast”.
With `Cc1c(COC(=O)C23CC4CC(CC(C4)C2)C3)cnc(CO)c1O`, the “reversal of the acute toxicity of 4-vinylpyridine” value in series [2] is listed as “reverse the acute toxicity in mice of 4-vinylpyridine”. In addition, the “growth inhibition of yeast” value in series [1] is “weak growth inhibitors of a species of yeast”.
`CC(CC(=O)C12CC3CC(CC(C3)C1)C2)c1cccnc1` (racemic) [Example 10, (±)-1-(1-Adamantyl)-3-(3-pyridyl)butan-1-one]: the pIC50 in series [3] is 5.85; in series [4], 5.89; in series [5], 6.30.
With `CC(Cc1cccnc1)C(=O)C12CC3CC(CC(C3)C1)C2` (racemic) [Example 11, (±)-1-(1-Adamantyl)-2-methyl-3-(3-pyridyl)propan-1-one], the negative logarithm of the IC50 (pIC50) in series [3] is 5.57; in series [4], 6.00; in series [5] it was 6.15.
Take `O=C(NCc1ccncc1)C1CCCCC1` [Cy NH H H 4, reference compound]: the “IC50 against lyase and hydroxylase relative to the less good compounds of formula (3)” value in series [6] was roughly 20 ×. The pIC50 in series [4] was 4.40; in series [5] it was 5.00.
Consider `CC(C)(OC(=O)C12CC3CC(CC(C3)C1)C2)c1ccncc1` [Example 4, 2-(4-Pyridyl)propan-2-yl 1-adamantanecarboxylate], for which, in series [7], the “resistance to hydrolytic cleavage” value was “considerably more resistant to cleavage than the other esters”.
For the compound `CC(C)(OC(=O)C12CC3CC(CC(C3)C1)C2)c1cccnc1` [Example 8, 2-(3-Pyridyl)propan-2-yl 1-adamantanecarboxylate], in series [7], the “resistance to hydrolytic cleavage” value is given as “considerably more resistant to cleavage than the other esters”.
Regarding `O=C(CCc1cccnc1)C12CC3CC(CC(C3)C1)C2` [Example 9, 1-(1-Adamantyl)-3-(3-pyridyl)propan-1-one], the negative-log IC50 (pIC50) was 5.47 in series [3], 5.66 in series [4] and 6.35 in series [5].
